Assay results reported in patent publication US11160887B2, “Compositions for use in diagnosing and treating melanoma, including metastatic melanoma and methods related to same” (UNM RAINFOREST INNOVATIONS, priority 2008, dated 2021).
Like-named read-outs stand apart in the source and are kept apart here. Residues, ends and D or L forms follow the SMILES beside them.

Key:
Format in all cases: in vivo, mouse
[1] = Biodistribution in B16/F1 murine melanoma-bearing C57 mice; conditions: female, C57, mouse, iv, 0.037 MBq, total radioactivity; for tissue uptake: all time points (2, 4, 24 h)
Protocol: (§1) Biodistribution Studies: All the animal studies were conducted in compliance with Institutional Animal Care and Use Committee approval. The pharmacokinetics of ^111In-DOTA-CycMSH and ^111In-DOTA-GlyGlu-CycMSH were determined in B16/F1 murine melanoma-bearing C57 female mice (Harlan, Indianapolis, Ind.). C57 mice were inoculated subcutaneously with 1×10^6 B16/F1 murine melanoma cells in the right flank. After 10 days, when the weight of tumors reached approximately 0.2 g, 0.037 MBq of ^111In-DOTA-CycMSH or ^111In-DOTA-GlyGlu-CycMSH was injected into each mouse through the tail vein. Groups of 5 mice were sacrificed at 2, 4 and 24 h post-injection, and tumors and organs of interest were harvested, weighed and counted. Blood values were taken as 6.5% of the whole-body weight. The tumor uptake specificity of ^111In-DOTA-CycMSH and ^111In-DOTA-GlyGlu-CycMSH was determined by blocking tumor uptake with the co-injection of 10 μg (6.07 nmol) of unlabeled NDP-MSH, a linear α-MSH peptide analogue with picomolar affinity for the MC1 receptors present on murine melanoma cells. Statistical analysis was performed using the Student's t-test for unpaired data.

[2] = test system: B16/F1 murine melanoma-bearing C57 mice; assay: as above
Protocol: as §1

[3] = Urinary metabolites by HPLC in B16/F1 melanoma-bearing C57 mice; conditions: urine, 2 h post-injection
Protocol: Urinary Metabolites of ^111In-DOTA-CycMSH and ^111In-DOTA-GlyGlu-CycMSH: One hundred microliter of HPLC purified ^111In-DOTA-CycMSH (0.74-1.11 MBq, 0.82-1.12 ng) or ^111In-DOTA-GlyGlu-CycMSH (0.74-1.11 MBq, 0.90-1.35 ng) was injected into each B16/F1 murine melanoma-bearing C57 mouse through the tail vein. At 2 h after dose administration, mice were sacrificed and the urine was collected. The radioactive metabolites in the urine were analyzed by injecting aliquots of urine into HPLC. A 20-minute gradient of 16-26% acetonitrile/20 mM HCl was used for the urine analysis.

CCCC[C@@H]1NC(=O)[C@@H](NC(=O)[C@H](CCC(=O)O)NC(=O)CNC(=O)CN2CCN(CC(=O)O)CCN(CC(=O)O)CCN(CC(=O)O)CC2)CCCCNC(=O)[C@H](CC(=O)O)NC(=O)[C@H](C(C)C)NC(=O)[C@@H]2CCCN2C(=O)[C@H](CCCNC(=N)N)NC(=O)CNC(=O)[C@H](Cc2c[nH]c3ccccc23)NC(=O)[C@H](CCCNC(=N)N)NC(=O)[C@@H](Cc2ccccc2)NC(=O)[C@H](Cc2c[nH]cn2)NC(=O)[C@H](CCC(=O)O)NC1=O [^111In-DOTA-GlyGlu-CycMSH, metal not drawn] (HELM PEPTIDE1{[O=C(O)CN1CCN(CC(=O)O)CCN(CC(=O)[*:2])CCN(CC(=O)O)CC1].G.E.K.[Nle].E.H.[dF].R.W.G.R.P.V.D}$PEPTIDE1,PEPTIDE1,4:R3-15:R2$$$V2.0)
tissue uptake ([1]; bone, read-out: bone uptake): < 0.2 %ID/g
kidney uptake at 24 h ([1]; kidney, 24 h after dose administration): 9.06 ± 1.82 %ID/g
tissue uptake ([1]; normal organs except the kidneys, read-out: normal organ uptakes except for the kidneys): < 0.8 %ID/g
tissue uptake at 2 h ([1]; tumor, 2 h post-injection, tail vein): 10.4 ± 1.4 %ID/g
tissue uptake at 4 h ([1]; tumor, 4 h post-injection, tail vein): 7.4 ± 0.43 %ID/g
tissue uptake at 24 h ([1]; tumor, 24 h post-injection, tail vein): 2.37 ± 0.28 %ID/g
dose excreted ([1]; urine, by 2 h post-injection, read-out: injected radioactivity cleared through the urinary system): ~90%
tumor uptake with NDP co-injection as % of the tumor uptake without NDP co-injection ([2]; 10 μg (6.07 nmol) non-radiolabeled NDP co-injection, 2 h after dose administration): 2.6%
tumor uptake ([2]; 2 h post-injection, tail vein): 10.40±1.40 % ID/g
kidney uptake higher than 111In-DOTA-ReCCMSH ([2]; 4 h post-injection): 29%
less renal uptake than 111In-DOTA-CycMSH ([2]; 4 h post-injection): 44%
renal uptake as % of that of 111In-DOTA-CMSH ([2]; 4 h post-injection): 34%
urinary metabolites by RP-HPLC [3]: transformed to two more polar metabolites
